# Results: patent US20230002352A1, “SULFONAMIDE DERIVATIVES AS CTPS1 INHIBITORS” (Step Pharma S.A.S., priority 2019, published 2023)
# Target: T1, human CTPS1 (Homo sapiens, UniProt P17812)
# T1 construct: purchased Proteros biostructures GmbH
# T1 sequence (P17812 1-591): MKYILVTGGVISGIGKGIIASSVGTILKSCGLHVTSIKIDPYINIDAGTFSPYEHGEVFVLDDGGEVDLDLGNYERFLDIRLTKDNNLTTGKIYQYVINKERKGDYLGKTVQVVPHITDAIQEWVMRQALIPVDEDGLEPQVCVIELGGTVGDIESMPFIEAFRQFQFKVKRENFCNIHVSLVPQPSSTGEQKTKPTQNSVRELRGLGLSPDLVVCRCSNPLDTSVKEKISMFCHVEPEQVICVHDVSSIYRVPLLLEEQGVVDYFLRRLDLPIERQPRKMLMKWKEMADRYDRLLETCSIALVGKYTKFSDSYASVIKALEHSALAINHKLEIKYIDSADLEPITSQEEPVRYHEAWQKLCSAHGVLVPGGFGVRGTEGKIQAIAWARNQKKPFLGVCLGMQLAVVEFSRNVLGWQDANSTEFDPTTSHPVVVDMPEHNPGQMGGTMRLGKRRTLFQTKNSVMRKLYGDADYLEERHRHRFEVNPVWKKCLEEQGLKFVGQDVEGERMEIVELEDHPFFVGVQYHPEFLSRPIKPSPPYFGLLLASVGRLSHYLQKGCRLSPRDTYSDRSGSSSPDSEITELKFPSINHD
# Experiment: Human CTPS1 enzyme inhibition (ADP-Glo Max assay)
# Assay type: biochemical
# Settings: Table 23; ADP-Glo Max assay; read-out: CTPS1 (Human CTPS1 Enzyme Inhibition data grouped by potency range, IC50)
# Protocol: Biological Example 1—Human CTPS1 Enzyme Inhibition
# The enzyme inhibitory activities of compounds invented against the target of interest were determined using the ADP-Glo™ Max assay (Promega, UK). Assays for human CTPS1 were performed in 1× assay buffer containing 50 mM Tris, 10 mM MgCl2, 0.01% Tween-20, pH to 8.0 accordingly. Finally, immediately before use, L-cysteine was added to the 1× assay buffer to a final concentration of 2 mM. All reagents are from Sigma-Aldrich unless specified otherwise. Human full length active C-terminal FLAG-Hiss-tag CTPS1 (UniProtKB-P17812, CTPS[1-591]-[…]) was obtained from Proteros biostructures GmbH.
# 3× human CTPS1 protein was prepared in 1× assay buffer to the final working protein concentration required for the reaction. A 2 uL volume per well of 3× human CTPS1 protein was mixed with 2 uL per well of 3× test compound (compound prepared in 1× assay buffer to an appropriate final 3× compound concentration respective to the concentration response curve designed for the compounds under test) for 10 minutes at 25° C. The enzymatic reaction was then initiated by addition of a 2 uL per well volume of a pre-mixed substrate mix (UltraPure ATP from ADP-Glo™ Max kit (0.31 mM), GTP (0.034 mM), UTP (0.48 mM) and L-glutamine (0.186 mM)) and the mixture was incubated for an appropriate amount of time within the determined linear phase of the reaction at 25° C. under sealed plate conditions with constant agitation at 500 revolutions per minute (rpm). ADP-Glo™ Max reagent was added for 60 minutes (6 μL per well) and subsequently ADP-Glo™ Max development reagent was added for 60 minutes (12 uL per well) prior to signal detection in a microplate reader (EnVision® Multilabel Reader, Perkin Elmer). Following each reagent addition over the course of the assay, assay plates were pulse centrifuged for 30 seconds at 500 rpm.
# In all cases, the enzyme converts ATP to ADP and the ADP-Glo™ Max reagent subsequently depletes any remaining endogenous ATP in the reaction system. The ADP-Glo™ Max detection reagent converts the ADP that has been enzymatically produced back into ATP and using ATP as a substrate together with luciferin for the enzyme luciferase, light is generated which produces a detectable luminescence. […] The percentage inhibition produced by each concentration of compound was calculated using the equation shown below: […]
# Percentage inhibition was then plotted against compound concentration, and the 50% inhibitory concentration (IC50) was determined from the resultant concentration-response curve.
row,Structure (SMILES),IC50 [nM]
1,CC(C)(C(=O)Nc1ccc(-c2cncc(F)c2)cc1)c1cccc(NS(=O)(=O)C2CC2)n1 [Example P177],1000 to 10000
2,CC(C)(C(=O)Nc1ccc(-c2cnccn2)cc1F)c1cccc(NS(=O)(=O)C2CC2)n1 [Example P180],1000 to 10000
3,CC(C)(C(=O)Nc1ccc(-c2cccnc2)cc1)c1cccc(NS(=O)(=O)C2CC2)n1 [Example P179],1000 to 10000
4,CCOc1cncc(-c2ccc(NC(=O)C3(c4ccnc(NS(=O)(=O)C5CC5)n4)CCNCC3)nc2)n1 [Example P140],100 to 1000
5,CC(C)(C(=O)Nc1ccc(-c2cnccn2)cc1F)c1ccnc(NS(=O)(=O)C2CC2)n1 [Example P42],1000 to 10000
6,CC(C)(C(=O)Nc1ccc(-c2cccc(Cl)c2)cc1)c1ccnc(NS(=O)(=O)C2CC2)n1 [Example P61],1000 to 10000
7,CC(C)(C(=O)Nc1ccc(-c2cncnc2)cc1)c1ccnc(NS(=O)(=O)C2CC2)n1 [Example P50],1000 to 10000
8,CN(C)c1cncc(-c2ccc(NC(=O)C(C)(C)c3ccnc(NS(=O)(=O)C4CC4)n3)cc2)n1 [Example P133],1000 to 10000
9,"Cc1cncc(-c2ccc(NC(=O)C(C)(C)c3ccnc(NS(C)(=O)=O)n3)c(C)c2)n1 [Example P5, 2-Methyl-N-(2-methyl-4-(6-methylpyrazin-2-yl)phenyl)-2-(2-(methylsulfonamido)pyrimidin-4-yl)propanamide]",1000 to 10000
10,CCOc1cncc(-c2cc(F)c(NC(=O)C(C)(C)c3ccnc(NS(=O)(=O)C4CC4)n3)cc2C)n1 [Example P40],100 to 1000
11,CCOc1cncc(-c2ccc(NC(=O)C(C)(C)c3cc(C(F)(F)F)nc(NS(=O)(=O)C4CC4)n3)nc2)n1 [Example P124],100 to 1000
12,CC(C)(C(=O)Nc1ccc(-c2cncc(C(F)(F)F)n2)cc1)c1cccc(NS(=O)(=O)C2CC2)n1 [Example P181],1000 to 10000
13,CCOc1cncc(-c2ccc(NC(=O)C(C)(C)c3cc(C)nc(NS(=O)(=O)C4CC4)n3)nc2)n1 [Example P123],100 to 1000
14,"CC(C)c1cncc(-c2ccc(NC(=O)C(C)(C)c3ccnc(NS(=O)(=O)C4CC4)n3)nc2)n1 [Example P116, 2-(2-(Cyclopropanesulfonamido)pyrimidin-4-yl)-N-(5-(6-isopropylpyrazin-2-yl)pyridin-2-yl)-2-methylpropanamide]",100 to 1000
15,O=C(Cc1ccnc(NS(=O)(=O)C2CC2)n1)Nc1ccc(-c2ccccc2)cc1 [Example P17],1000 to 10000
16,CCOc1cncc(-c2cc(C)c(NC(=O)C(C)(C)c3ccnc(NS(=O)(=O)C4CC4)n3)cc2C)n1 [Example P46],100 to 1000
17,CCOc1cncc(-c2ccc(NC(=O)C(C)(C)c3cccc(NS(=O)(=O)C4CC4)n3)cc2)c1 [Example P178],1000 to 10000
18,CC(C)(C(=O)Nc1ccc(-c2cccc(C#N)c2)cc1)c1ccnc(NS(=O)(=O)C2CC2)n1 [Example P62],1000 to 10000

# Continued, values first:
row,IC50 [nM],Structure (SMILES)
1,≤ 100,CCOc1cncc(-c2ccc(NC(=O)C(C)(C)c3ccnc(NS(=O)(=O)C4CC4)n3)c(Cl)c2)n1 [Example P33]
2,≤ 100,O=C(Cc1ccnc(NS(=O)(=O)C2CC2)n1)Nc1ccc(-c2cncc(OCC(F)(F)F)n2)cc1 [Example P20]
3,≤ 100,CC(C)Oc1cncc(-c2ccc(NC(=O)C(C)(C)c3ccnc(NS(=O)(=O)C4CC4)n3)cc2)n1 [Example P67]
4,100 to 1000,CCOc1cncc(-c2ccc(NC(=O)C(C)(C)c3ccnc(NS(=O)(=O)CC)n3)c(F)c2)n1 [Example P72]
5,≤ 100,CC(C)(C(=O)Nc1ccc(-c2cncc(OC3CC3)n2)cn1)c1ccnc(NS(=O)(=O)C2CC2)n1 [Example P32]
6,≤ 100,CC(C)(C(=O)Nc1ccc(-c2cncc(OC(F)F)c2)cc1)c1ccnc(NS(=O)(=O)C2CC2)n1 [Example P55]
7,≤ 100,CCOc1cncc(-c2ccc(NC(=O)C3(c4ccnc(NS(=O)(=O)C5CC5)n4)CCOCC3)cc2)n1 [Example P137]
8,100 to 1000,O=C(Cc1cccc(NS(=O)(=O)C2CC2)n1)Nc1ccc(-c2cncc(F)c2)cc1 [Example P169]
9,100 to 1000,CCOc1cncc(-c2ccc(C(=O)NC3(c4ccnc(NS(=O)(=O)C5CC5)n4)CC3)c(F)c2)n1 [Example P209]
10,100 to 1000,CCOc1cncc(-c2ccc(NC(=O)C3(c4ccnc(NS(C)(=O)=O)n4)CCN(C(=O)OC(C)(C)C)CC3)nc2)n1 [Example P142]
11,≤ 100,CCOc1cncc(-c2ccc(NC(=O)C(F)(F)c3ccnc(NS(=O)(=O)C4CC4)n3)c(F)c2)n1 [Example P117]
12,100 to 1000,Cc1cc(-c2cncc(C(F)(F)F)n2)ccc1NC(=O)C(C)(C)c1ccnc(NS(=O)(=O)C2CC2)n1 [Example P43]
13,100 to 1000,CCOc1cncc(-c2ccc(NC(=O)C(C)(CCOC)c3ccnc(NS(C)(=O)=O)n3)nc2)n1 (centres unmarked) [Example P147]
14,100 to 1000,CCOc1cncc(-c2cnc(NC(=O)C(C)(C)c3ccnc(NS(C)(=O)=O)n3)c(F)c2)n1 [Example P75]
15,100 to 1000,CCOc1cncc(-c2ccc(NC(=O)C(C)(C)c3cccc(NS(=O)(=O)C4CC4)n3)cc2)n1 [Example P183]
16,100 to 1000,CCOc1cncc(-c2ccc(NC(=O)C3(c4ccnc(NS(=O)(=O)C5CC5)n4)CN(C(=O)OC(C)(C)C)C3)nc2)n1 [Example P141]
17,100 to 1000,CCOc1cncc(-c2ccc(NC(=O)C(C)(C)c3cc(C)nc(NS(=O)(=O)C4CC4)n3)c(F)c2)n1 [Example P129]
18,100 to 1000,CCS(=O)(=O)Nc1nccc(C(C)(C)C(=O)Nc2ccc(-c3cncc(C(F)(F)F)n3)cc2)n1 [Example P73]
19,100 to 1000,CCOc1cncc(-c2ccc(NC(=O)C(C)(C)c3ccnc(NS(=O)(=O)C4CC4)n3)cc2)c1 [Example P57]
20,≤ 100,COc1cncc(-c2ccc(NC(=O)Cc3ccnc(NS(=O)(=O)C4CC4)n3)cc2)n1 [Example P19]
21,100 to 1000,CC(C)(C(=O)Nc1ccc(-c2cncc(OC3CC3)n2)cc1)c1ccnc(NS(=O)(=O)C2CC2)n1 [Example P66]
22,100 to 1000,O=C(Cc1cccc(NS(=O)(=O)C2CC2)n1)Nc1ccc(-c2cncc(C(F)(F)F)n2)cc1 [Example P172]
23,≤ 100,CCC(C(=O)Nc1ccc(-c2cncc(C3CC3)n2)cc1F)c1ccnc(NS(=O)(=O)C2CC2)n1 (centres unmarked) [Example P160]
24,≤ 100,CCOc1cncc(-c2ccc(NC(=O)C(c3ccnc(NS(=O)(=O)C4CC4)n3)C(C)C)c(F)c2)n1 (centres unmarked) [Example P153]
25,≤ 100,CC(C)(C(=O)Nc1ccc(-c2cncc(C(F)(F)F)n2)cn1)c1ccnc(NS(=O)(=O)C2CC2)n1 [Example P30]
26,≤ 100,"COc1cncc(-c2ccc(NC(=O)C(C)(C)c3ccnc(NS(=O)(=O)C4CC4)n3)cc2)n1 [Example P3, 2-(2-(cyclopropanesulfonamido)pyrimidin-4-yl)-N-(4-(6-methoxypyrazin-2-yl)phenyl)-2-methylpropanamide]"
27,≤ 100,CCOc1cncc(-c2cnc(NC(=O)C(CCOC)c3ccnc(NS(=O)(=O)C4CC4)n3)c(F)c2)n1 (centres unmarked) [Example P144]
28,≤ 100,CCC(C(=O)Nc1ccc(-c2cncc(OCC(F)(F)F)n2)cn1)c1ccnc(NS(=O)(=O)C2CC2)n1 (centres unmarked) [Example P157]
29,≤ 100,CCC(C(=O)Nc1ccc(-c2cncc(C3CC3)n2)cn1)c1ccnc(NS(=O)(=O)C2CC2)n1 (centres unmarked) [Example P156]

# Same assay, conditions: Table 24; ADP-Glo Max assay; read-out: CTPS1 (Human CTPS1 Enzyme Inhibition data grouped by potency range, IC50)
row,IC50 [nM],Structure (SMILES)
1,100 to 1000,CCOc1cncc(-c2ccc(NCC3(c4ccnc(NS(=O)(=O)C5CC5)n4)CCOCC3)cc2)n1 [Example P256]
2,≤ 100,CCOc1cncc(-c2ccc(NC(=O)C3(c4ccnc(NS(=O)(=O)C5CC5)n4)CCC(OC)CC3)nc2)n1 (centres unmarked) [Example P260]
3,100 to 1000,CCOc1cncc(-c2ccc(CNC3(c4ccnc(NS(=O)(=O)C5CC5)n4)CC3)c(F)c2)n1 [Example P255]
